# Results as given in patent US20060264388A1, “Method for treating liver cancer by intrahepatic administration of nemorubicin” (priority 2003, published 2006).
# Assays:
# [1] = test system: patients with liver cancer; test: Hematological toxicity - Platelets, worst CTC Grade by cycle, intrahepatic artery nemorubicin q8wk vs q6wk; type: in vivo, human
# Protocol: (§1) The objective of the study was to shorten the time interval between treatment administrations from every 8 weeks (q8wk) of the protocol as reported in WO 00/15203 to every 6 weeks (q6wk). This was done in the attempt of improving the therapeutic potential of nemorubicin treatment through an increase of the dose intensity of the therapy, simultaneously safeguarding patient safety.
# (§2) Overall, 13 patients were treated with the q8wk schedule (total 25 cycles administered; doses ranged from 200 to 800 mcg/m^2), and 11 patients were treated with the q6wk schedule (total 32 cycles administered; doses were 200 and 600 mcg/m^2).
# (§3) The NCI-Common Tosicity Criteria grading system (CTC Grade), Version 2.0, was used to report toxicities.
# A slight cumulative effect (i.e., increase in frequency but not in severity) was observed after repeated cycles for leucopenia and neutropenia (Tables 2 and 3), mainly with the q8wk schedule.
# [2] = test system: patients with liver cancer; test: Liver toxicity (SGOT, SGPT, Total Bilirubin), worst CTC Grade by cycle, intrahepatic artery nemorubicin q8wk vs q6wk; type: in vivo, human
# Protocol: as §1, §2, §3
# [3] = 200 mcg/m^2 q6wk, All cycles, 11 evaluable cycles
# [4] = 200 mcg/m^2 q6wk, Cycle 1, 5 evaluable cycles
# [5] = 200 mcg/m^2 q6wk, Cycles > 1, 6 evaluable cycles
# [6] = 200 mcg/m^2 q8wk, All cycles, 5 evaluable cycles
# [7] = 200 mcg/m^2 q8wk, Cycle 1, 3 evaluable cycles
# [8] = 200 mcg/m^2 q8wk, Cycles > 1, 2 evaluable cycles
# [9] = 400 mcg/m^2 q8wk, All cycles, 4 evaluable cycles
# [10] = 400 mcg/m^2 q8wk, Cycle 1, 3 evaluable cycles
# [11] = 600 mcg/m^2 q6wk, All cycles, 18 evaluable cycles
# [12] = 600 mcg/m^2 q6wk, Cycle 1, 6 evaluable cycles
# [13] = 600 mcg/m^2 q6wk, Cycles > 1, 12 evaluable cycles
# [14] = 600 mcg/m^2 q8wk, All cycles, 8 evaluable cycles
# [15] = 600 mcg/m^2 q8wk, Cycle 1, 4 evaluable cycles
# [16] = 600 mcg/m^2 q8wk, Cycles > 1, 4 evaluable cycles
# [17] = 800 mcg/m^2 q8wk, All cycles, 3 evaluable cycles
# [18] = 800 mcg/m^2 q8wk, Cycle 1, 3 evaluable cycles
# [19] = 200 mcg/m^2 q6wk, 12 evaluable cycles
# [20] = 200 mcg/m^2 q8wk, 5 evaluable cycles
# [21] = 400 mcg/m^2 q8wk, 4 evaluable cycles
# [22] = 600 mcg/m^2 q6wk, 17 evaluable cycles
# [23] = 600 mcg/m^2 q6wk, 18 evaluable cycles
smiles,measurement,setting,value
"COc1cccc2c1C(=O)c1c(O)c3c(c(O)c1C2=O)C[C@@](O)(C(=O)CO)C[C@@H]3O[C@H]1C[C@H](N2CCO[C@H](OC)C2)[C@H](O)[C@H](C)O1.Cl [nemorubicin, 3′desamino-3′[2(S)methoxy-4-morpholinyl]doxorubicin-hydrochloride]","Platelets, worst CTC Grade by cycle: All Grades (%)",[1]; [3],10 (91%) (%)
same,"Platelets, worst CTC Grade by cycle: Grade 1-2 (%)",[1]; [3],10 (91%) (%)
same,"Platelets, worst CTC Grade by cycle: All Grades (%)",[1]; [4],4 (80%) (%)
same,"Platelets, worst CTC Grade by cycle: Grade 1-2 (%)",[1]; [4],4 (80%) (%)
same,"Platelets, worst CTC Grade by cycle: All Grades (%)",[1]; [5],6 (100%) (%)
same,"Platelets, worst CTC Grade by cycle: Grade 1-2 (%)",[1]; [5],6 (100%) (%)
same,"Platelets, worst CTC Grade by cycle: All Grades (%)",[1]; [6],5 (100%) (%)
same,"Platelets, worst CTC Grade by cycle: Grade 1-2 (%)",[1]; [6],5 (100%) (%)
same,"Platelets, worst CTC Grade by cycle: All Grades (%)",[1]; [7],3 (100%) (%)
same,"Platelets, worst CTC Grade by cycle: Grade 1-2 (%)",[1]; [7],3 (100%) (%)
same,"Platelets, worst CTC Grade by cycle: All Grades (%)",[1]; [8],2 (100%) (%)
same,"Platelets, worst CTC Grade by cycle: Grade 1-2 (%)",[1]; [8],2 (100%) (%)
same,"Platelets, worst CTC Grade by cycle: All Grades (%)",[1]; [9],1 (25%) (%)
same,"Platelets, worst CTC Grade by cycle: Grade 1-2 (%)",[1]; [9],1 (25%) (%)
same,"Platelets, worst CTC Grade by cycle: All Grades (%)",[1]; [10],1 (33%) (%)
same,"Platelets, worst CTC Grade by cycle: Grade 1-2 (%)",[1]; [10],1 (33%) (%)
same,"Platelets, worst CTC Grade by cycle: All Grades (%)",[1]; [11],17 (94%) (%)
same,"Platelets, worst CTC Grade by cycle: Grade 1-2 (%)",[1]; [11],17 (94%) (%)
same,"Platelets, worst CTC Grade by cycle: All Grades (%)",[1]; [12],6 (100%) (%)
same,"Platelets, worst CTC Grade by cycle: Grade 1-2 (%)",[1]; [12],6 (100%) (%)
same,"Platelets, worst CTC Grade by cycle: All Grades (%)",[1]; [13],11 (92%) (%)
same,"Platelets, worst CTC Grade by cycle: Grade 1-2 (%)",[1]; [13],11 (92%) (%)
same,"Platelets, worst CTC Grade by cycle: All Grades (%)",[1]; [14],8 (100%) (%)
same,"Platelets, worst CTC Grade by cycle: Grade 1-2 (%)",[1]; [14],7 (87%) (%)
same,"Platelets, worst CTC Grade by cycle: Grade 3 (%)",[1]; [14],1 (12%) (%)
same,"Platelets, worst CTC Grade by cycle: All Grades (%)",[1]; [15],4 (100%) (%)
same,"Platelets, worst CTC Grade by cycle: Grade 1-2 (%)",[1]; [15],4 (100%) (%)
same,"Platelets, worst CTC Grade by cycle: All Grades (%)",[1]; [16],4 (100%) (%)
same,"Platelets, worst CTC Grade by cycle: Grade 1-2 (%)",[1]; [16],3 (75%) (%)
same,"Platelets, worst CTC Grade by cycle: Grade 3 (%)",[1]; [16],1 (25%) (%)
same,"Platelets, worst CTC Grade by cycle: All Grades (%)",[1]; [17],2 (67%) (%)
same,"Platelets, worst CTC Grade by cycle: Grade 1-2 (%)",[1]; [17],2 (67%) (%)
same,"Platelets, worst CTC Grade by cycle: All Grades (%)",[1]; [18],2 (67%) (%)
same,"Platelets, worst CTC Grade by cycle: Grade 1-2 (%)",[1]; [18],2 (67%) (%)
same,"thrombocytopenia, maximum severity (CTC Grade)",[1]; only one patient treated at 600 mcg/m^2 q8wk after repeated cycles,Grade 3
same,"SGOT, worst CTC Grade by cycle (increased of at least one Grade versus baseline Grade): All Grades (%)",[2]; [19],9 (75%) (%)
same,"SGOT, worst CTC Grade by cycle (increased of at least one Grade versus baseline Grade): Grade 1-2 (%)",[2]; [19],8 (67%) (%)
same,"SGOT, worst CTC Grade by cycle (increased of at least one Grade versus baseline Grade): Grade 3-4 (%)",[2]; [19],1 (8%) (%)
same,"SGPT, worst CTC Grade by cycle (increased of at least one Grade versus baseline Grade): All Grades (%)",[2]; [19],7 (58%) (%)
same,"SGPT, worst CTC Grade by cycle (increased of at least one Grade versus baseline Grade): Grade 1-2 (%)",[2]; [19],7 (58%) (%)
same,"Total Bilirubin, worst CTC Grade by cycle (increased of at least one Grade versus baseline Grade): All Grades (%)",[2]; [19],10 (83%) (%)
same,"Total Bilirubin, worst CTC Grade by cycle (increased of at least one Grade versus baseline Grade): Grade 1-2 (%)",[2]; [19],10 (83%) (%)
same,"SGOT, worst CTC Grade by cycle (increased of at least one Grade versus baseline Grade): All Grades (%)",[2]; [20],3 (60%) (%)
same,"SGOT, worst CTC Grade by cycle (increased of at least one Grade versus baseline Grade): Grade 1-2 (%)",[2]; [20],3 (60%) (%)
same,"SGPT, worst CTC Grade by cycle (increased of at least one Grade versus baseline Grade): All Grades (%)",[2]; [20],4 (80%) (%)
same,"SGPT, worst CTC Grade by cycle (increased of at least one Grade versus baseline Grade): Grade 1-2 (%)",[2]; [20],4 (80%) (%)
same,"Total Bilirubin, worst CTC Grade by cycle (increased of at least one Grade versus baseline Grade): All Grades (%)",[2]; [20],5 (100%) (%)
same,"Total Bilirubin, worst CTC Grade by cycle (increased of at least one Grade versus baseline Grade): Grade 1-2 (%)",[2]; [20],5 (100%) (%)
same,"SGOT, worst CTC Grade by cycle (increased of at least one Grade versus baseline Grade): All Grades (%)",[2]; [21],4 (100%) (%)
same,"SGOT, worst CTC Grade by cycle (increased of at least one Grade versus baseline Grade): Grade 1-2 (%)",[2]; [21],1 (25%) (%)
same,"SGOT, worst CTC Grade by cycle (increased of at least one Grade versus baseline Grade): Grade 3-4 (%)",[2]; [21],3 (75%) (%)
same,"SGPT, worst CTC Grade by cycle (increased of at least one Grade versus baseline Grade): All Grades (%)",[2]; [21],3 (75%) (%)
same,"SGPT, worst CTC Grade by cycle (increased of at least one Grade versus baseline Grade): Grade 1-2 (%)",[2]; [21],2 (50%) (%)
same,"SGPT, worst CTC Grade by cycle (increased of at least one Grade versus baseline Grade): Grade 3-4 (%)",[2]; [21],1 (25%) (%)
same,"Total Bilirubin, worst CTC Grade by cycle (increased of at least one Grade versus baseline Grade): All Grades (%)",[2]; [21],2 (50%) (%)
same,"Total Bilirubin, worst CTC Grade by cycle (increased of at least one Grade versus baseline Grade): Grade 1-2 (%)",[2]; [21],2 (50%) (%)
same,"SGOT, worst CTC Grade by cycle (increased of at least one Grade versus baseline Grade): All Grades (%)",[2]; [22],16 (94%) (%)
same,"SGOT, worst CTC Grade by cycle (increased of at least one Grade versus baseline Grade): Grade 1-2 (%)",[2]; [22],14 (82%) (%)
same,"SGOT, worst CTC Grade by cycle (increased of at least one Grade versus baseline Grade): Grade 3-4 (%)",[2]; [22],2 (12%) (%)
same,"SGPT, worst CTC Grade by cycle (increased of at least one Grade versus baseline Grade): All Grades (%)",[2]; [23],16 (89%) (%)
same,"SGPT, worst CTC Grade by cycle (increased of at least one Grade versus baseline Grade): Grade 1-2 (%)",[2]; [23],14 (78%) (%)
